Assay [1] has as its system CWR22Rv1 cells (human prostate cancer). Kind of assay: MTT cell growth assay, CWR22Rv1 cells. The class given is cell-based. The settings on record: Homo sapiens, 120 h, 5 days, read-out: Inhibition of Tumor cells growth IC50. On the procedure:
The MTT cell proliferation assay was applied in the present invention to detect the capability of compounds to suppress or inhibit prostate cancer cells growth. […] Briefly, 1 x 10^3 LNCaP or CWR22Rv1 cells suspended in complete medium were plated into each well of a 96-well Microtest III tissue culture plate (Falcon, NJ). Two days later, the medium was replaced with RPMI-1640 medium containing 10% charcoal/dextran-deprived FBS (hormone-deprived fetal bovine serum). Testing compounds were added to the medium at indicated concentrations with or without 1 nM DHT and cells were cultured for 5 days in an incubator (at 37 °C). MTT substrate solution (5 mg/ml in PBS) in 1/10 of volume was added to the cells in each well at 2 hours before harvesting. After 2 hour incubation, the plates were centrifuged (10 min at 1,000 rpm) and the supernatant from each well was carefully removed. A 100 µl of lysis buffer (50% dimethyl formamide, 5% sodium dodecyl sulphate, 0.35 M acetic acid, and 50 mM HCl) was added to each well to lyse the cells and dissolved tetrazolium in each well. The relative quantity of enzyme activity from each well was measured based on absorbance read at a wavelength of 450 nm using a Bio-RAD BenchMark microplate reader. Data derived from the MTT assay were also verified by the actual cell count and cell morphology on a separate plate set up in parallel.
For inhibition of tumor cell growth, in vitro, cells were growth in the presence of testing compounds for 5 days, and the cell growth was assayed by standard MTT assay. […] Table 2: Biological activity of Compounds and Derivatives having (1E, 6E)-1,7-bis-(3,4-dimethoxyphenyl)-4,4-disubstituted-hepta-1,6-diene-3,5-dione OR (1E, 10E)-1,11-bis(substituted phenyl)- 6,6-disubstituted undeca-1,3,8,10-tetraene-5,7-dione structural scaffold
On the technique in general: Tetrazolium assays rely on reduction of a dye to a coloured formazan, in cell work by metabolically active cells.

Another assay deals with T1, AR protein (Homo sapiens, UniProt P10275, T878A).
T1 sequence (P10275 1-920 T878A): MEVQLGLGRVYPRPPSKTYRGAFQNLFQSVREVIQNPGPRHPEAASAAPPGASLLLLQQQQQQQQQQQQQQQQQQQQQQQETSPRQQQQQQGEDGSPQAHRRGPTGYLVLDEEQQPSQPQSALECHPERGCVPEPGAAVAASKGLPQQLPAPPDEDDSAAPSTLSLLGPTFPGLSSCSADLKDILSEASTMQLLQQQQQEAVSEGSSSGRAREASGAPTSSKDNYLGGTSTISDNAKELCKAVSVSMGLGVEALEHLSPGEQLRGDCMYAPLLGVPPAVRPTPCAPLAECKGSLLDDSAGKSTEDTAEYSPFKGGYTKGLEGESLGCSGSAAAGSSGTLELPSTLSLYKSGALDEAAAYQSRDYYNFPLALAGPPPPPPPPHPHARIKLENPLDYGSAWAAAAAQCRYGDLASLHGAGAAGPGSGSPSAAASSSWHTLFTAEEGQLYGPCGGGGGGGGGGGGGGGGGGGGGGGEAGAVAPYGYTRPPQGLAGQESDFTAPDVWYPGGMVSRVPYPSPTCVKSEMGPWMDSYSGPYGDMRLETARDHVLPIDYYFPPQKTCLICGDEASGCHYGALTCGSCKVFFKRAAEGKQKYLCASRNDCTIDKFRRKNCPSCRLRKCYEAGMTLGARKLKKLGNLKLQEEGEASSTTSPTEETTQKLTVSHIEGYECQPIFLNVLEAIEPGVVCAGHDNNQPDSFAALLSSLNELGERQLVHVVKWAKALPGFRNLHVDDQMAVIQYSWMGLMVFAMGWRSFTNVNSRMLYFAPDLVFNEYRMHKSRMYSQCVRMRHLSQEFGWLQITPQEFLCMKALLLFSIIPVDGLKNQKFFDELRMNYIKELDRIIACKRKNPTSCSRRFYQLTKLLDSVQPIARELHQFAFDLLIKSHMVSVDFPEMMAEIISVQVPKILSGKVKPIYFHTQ
Kind of assay: Cycloheximide chasing assay of AR degradation in LNCaP cells. The class given is cell-based. The settings on record: in the presence of cycloheximide (CHX) (FIG. 7). On the procedure:
AR protein "degradation" in prostate cancer cells was measured by using cycloheximide (a protein synthesis inhibitor) chasing assay method. Briefly, LNCaP cells were incubated with testing ASC compound at the designated concentrations for 24 hours. Subsequently, cycloheximide was added to the cells at a concentration of 15 µg/ml to block new protein synthesis. After incubation, cells were harvested at designated time periods and the resultant change in AR protein levels were analysed using Western Blot analysis as described above.

Assay [2] addresses T2, Androgen Receptor (AR) (Homo sapiens, UniProt P10275, H875Y, form not given).
T2 sequence (P10275 1-920 H875Y): T1 sequence (P10275 1-920 T878A) with H875Y, A878T
The assay can be described thus: Western Blot analysis of AR protein expression in CWR22Rv1 cells. To be noted: various concentrations, Western Blot (FIG. 6). The class given is cell-based. For orientation: Immunoblotting shows a protein as a band on a membrane.

The target in assay [3] is T3, Androgen Receptor (AR) (Homo sapiens, UniProt P10275, T878A).
T3 sequence (P10275 1-920 T878A): T1 sequence (P10275 1-920 T878A)
The assay can be described thus: Western Blot analysis of AR protein expression in LNCaP cells. To be noted: various concentrations, Western Blot (FIG. 6).

Changes are numbered by the printed parent chain.

By IC50 is commonly meant the concentration needed to halve the response being measured. On to `COc1ccc(C=CC(=O)C=C(O)C=Cc2ccc(OC)c(OC)c2)cc1OC` [ASC-J9®, 1,7-Bis-(3,4-dimethoxy-phenyl)-5-hydroxy-hepta-1,4,6-trien-3-one, reference compound], for which the IC50 in assay [1] was found to be 4 µM. At AR protein, the AR protein degradation result was “enhances AR protein degradation”.

As to `COc1ccc(/C=C/C(=O)C(C(=O)/C=C/c2ccc(OC)c(OC)c2)=C(O)/C=C/c2ccc(OC)c(OC)c2)cc1OC` [ASC-JM4], the “reducing endogenous AR expression” value on Androgen Receptor (AR) [2] and at Androgen Receptor (AR) [3] was “capable of reducing endogenous AR expression” throughout.

With `COc1ccc(/C=C/C(=O)C2CC(c3ccc(OC)c(OC)c3)(C(C(=O)/C=C/c3ccc(OC)c(OC)c3)C(=O)/C=C/c3ccc(OC)c(OC)c3)CC2=O)cc1OC` (centres unmarked) [ASC-JM5], the AR protein degradation result at AR protein is given as “enhances AR protein degradation”.

The record behind these values is patent EP3150203B1, “COMPOUNDS WITH (1E,6E)-1,7-BIS-(3,4- DIMETHOXYPHENYL)-4,4-DISSTITUTED-HEPA-1,6-DIENE-3,5-DI-ONE STRUCTURAL SCAFFOLD,THEIR BIOLOGICAL ACTIVITY, AND USES THEREOF” (Allianz Pharmascience Ltd, priority 2012, dated 2013).
